{"source": "patent US11591323B2", "about": "“Muscarinic agonists as non-steroidal and non-opioid analgesics and methods of use thereof” (Barry University, priority 2019, dated 2023)", "test_system": "rat aorta smooth muscle cells (mainly M2, lesser M3)", "test": "IPX level in primary culture of rat aorta smooth muscle cells", "format": "cell-based", "conditions": "in words", "procedure": "Effects of compounds 6A and 7A on both cAMP and IPX levels were also measured in primary cultures of rat aorta smooth muscle cells that express mainly M2 and to a lesser extent M3 receptors (FIG. 6). […] Receptor expression levels are far lower in tested native tissues than in transfected cell lines and vary among tissues, being highest in the striatum and lowest in the submaxillary gland. Relative expression levels of G-proteins are also known to vary among tissues and cell lines. Thus, it is great to see that the pharmacological profile of the new compounds is conserved despite these variations.\nCell culture and membrane preparation: Chinese hamster ovary (CHO) cells stably transfected with the genes of individual human variants of muscarinic receptors were purchased from Missouri S&T cDNA Resource Center (Rolla, Mo., USA). Fresh primary cell culture of smooth muscle cells (SMC) from rat aorta prepared as previously described was kindly provided by Dr. Lucie Bačáková. […]\nMeasurements of the production of cAMP and inositol phosphates: Levels of second messengers cAMP and inositol phosphates were determined in radiochemical chromatography assays as described previously. […] Samples were applied to alumina columns (1.5 g of alumina per column), washed with 2 ml ammonium acetate (pH=7.0) and eluted from columns with 4 ml ammonium acetate and measured by liquid scintillation spectrometry. […]", "data": [{"compound": "C[N+](C)(C)CCOC(N)=O", "note": "[carbachol, reference compound]", "values": [{"measurement": "IPX level", "value": "increase in IPX level"}]}]}
